What all share (type): cell-based, human
In assay [1] the test system is phosphorylation of Aurora A at Thr288 in AsPC-1. Description: Western blot, Aurora A phosphorylation at Thr288, nocodazole-synchronized cells. The following applies: 10 µM, 1 h, nocodazole 200 ng/mL. The method, then:
(§1) Lysates were then assessed by Western blotting using the indicated antibodies. Representative blots of at least three independent experiments are shown. In all blots, Akt total (A,B) and α-actinin (C,D) were used as loading control. In (A,B) membranes incubated with pAkt (Thr308) were stripped and re-incubated with anti Akt. The percentage of phosphorylated Akt is calculated by normalization to the loading control total Akt. In (C,D) membranes incubated with pAurora (Thr288) were stripped and re-incubated with anti-Aurora A. The percentage of phosphorylated Aurora A is calculated by normalization to the loading control α-actinin.
(§2) Cells (300,000 per well) from different cell lines were seeded in six-well plates. The next day, five wells were stimulated with nocodazole 200 ng/mL for 24 h. […] To analyze the expression of phosphorylated PLCγ, cells were incubated overnight in serum-free culture media. […] Supernatants were transferred in a 1.5 mL Eppendorf tube and protein concentrations were determined using the Direct Detect Assay-Free cards and the Direct Detect Spectrometer (Merck Millipore, Decantur, IL, USA). […]

The subject of assay [2] is phosphorylation of Aurora A at Thr288 in HPAF-II. The description is as above. The following applies: 10 µM, 1 h, nocodazole 200 ng/mL. On the procedure: as §1, §2
Assay [3] relates to PLK1 Thr210 phosphorylation in AsPC-1. Put plainly: Western blot, phosphorylation of PLK1 at Thr210, nocodazole-synchronized cells. As to conditions: 5 μM, 1 h, nocodazole 200 ng/mL. On the procedure:
(§3) Lysates were then assessed by Western blotting using the indicated antibodies. Representative blots of at least three independent experiments are shown. The percentage of phosphorylated PLCγ1 is calculated by normalization to the loading control GAPDH. […] The percentage of phosphorylated PLK1 is calculated by normalization to the loading control α-actinin. […] The percentage of phosphorylated Histone H3 is calculated by normalization to the loading control α-actinin.
(§4) Cells (300,000 per well) from different cell lines were seeded in six-well plates. The next day, five wells were stimulated with nocodazole 200 ng/mL for 24 h. […] To analyze the expression of phosphorylated PLCγ, cells were incubated overnight in serum-free culture media. […] Cells were then collected by scraping and lysed in cold radioimmunoprecipitation assay buffer (150 mM sodium chloride, 1.0% NP-40 or Triton X-100, 0.5% sodium deoxycholate, 0.1% sodium dodecyl sulphate, 50 mM Tris HCl, pH 8.0) supplemented with 1X Protease/Phosphatase Inhibitor Cocktail (100X stock, Sigma Aldrich, St. Louis, MO, USA). Lysates were sonicated at 4 °C and centrifuged at 10,000 g for 10 min at 4 °C. Supernatants were transferred in a 1.5 mL Eppendorf tube and protein concentrations were determined using the Direct Detect Assay-Free cards and the Direct Detect Spectrometer (Merck Millipore, Decantur, IL, USA). […]

Assay [4] deals with PLK1 Thr210 phosphorylation in HPAF-II. The description is as above. As to conditions: 5 μM, 1 h, nocodazole 200 ng/mL. On the procedure:
as §3, §4

The subject of assay [5] is phosphorylation of Akt at Thr308 in AsPC-1. Description: Western blot, FBS-induced phosphorylation of Akt at Thr308. The following applies: 5 μM, FBS 1 h. The method, then: as §1
(§5) Cells (300,000 per well) from different cell lines were seeded in six-well plates. The next day, five wells were stimulated with nocodazole 200 ng/mL for 24 h. Then four wells were treated for 2 h with the inhibitors of interest. To analyze the expression of phosphorylated PLCγ, cells were incubated overnight in serum-free culture media. […] Supernatants were transferred in a 1.5 mL Eppendorf tube and protein concentrations were determined using the Direct Detect Assay-Free cards and the Direct Detect Spectrometer (Merck Millipore, Decantur, IL, USA). […]

The subject of assay [6] is phosphorylation of Akt at Thr308 in HPAF-II. The assay is described as above. The following applies: 5 μM, FBS 1 h. The method, then:
as §1, §5

Assay [7] has as its system PLCγ1 Tyr783 phosphorylation in AsPC-1. Put plainly: Western blot, EGF-induced phosphorylation of PLCγ1 at Tyr783. As to conditions: 5 μM, 30 min, then EGF 25 ng/mL 10 min. On the procedure:
as §3
(§6) Cells (300,000 per well) from different cell lines were seeded in six-well plates. The next day, five wells were stimulated with nocodazole 200 ng/mL for 24 h. Then four wells were treated for 2 h with the inhibitors of interest. To analyze the expression of phosphorylated PLCγ, cells were incubated overnight in serum-free culture media. […] Cells were then collected by scraping and lysed in cold radioimmunoprecipitation assay buffer (150 mM sodium chloride, 1.0% NP-40 or Triton X-100, 0.5% sodium deoxycholate, 0.1% sodium dodecyl sulphate, 50 mM Tris HCl, pH 8.0) supplemented with 1X Protease/Phosphatase Inhibitor Cocktail (100X stock, Sigma Aldrich, St. Louis, MO, USA). […] Supernatants were transferred in a 1.5 mL Eppendorf tube and protein concentrations were determined using the Direct Detect Assay-Free cards and the Direct Detect Spectrometer (Merck Millipore, Decantur, IL, USA). […]

Assay [8] relates to PLCγ1 Tyr783 phosphorylation in HPAF-II. The description is as above. The following applies: 5 μM, 30 min, then EGF 25 ng/mL 10 min. On the procedure:
as §3, §6

The structures appear in SMILES notation.

Turning to `CCN1CCN(C(=O)Cc2ccc(Nc3ncc(F)c(Nc4ccc(C(=O)Nc5ccccc5Cl)cc4)n3)cc2)CC1` [Aur I], the “effect on phosphorylation of Aurora A at Thr288” value in assay [1] and in assay [2] was “efficiently reduced” in each case. Moreover, the “effect on phosphorylation of PLK1 at Thr210” value in assay [3] and in assay [4] was “reduction in the phosphorylation of PLK1” each time.

Consider `CNc1nc(-c2ccc3c(N)n[nH]c3c2)cc(N2C[C@@H](C(=O)NC3CCCCC3)CC[C@H]2C)n1` [GSK2334470], for which the “effect on FBS-induced phosphorylation of Akt at Thr308” value in assay [5] and in assay [6] was “efficiently reduced” in each case. Moreover, the “effect on EGF-induced activation of PLCγ1 (Tyr783)” value in assay [7] and in assay [8] was “strongly reduced” in each case.

Source of the values: PMC6896057, “Dual PDK1/Aurora Kinase A Inhibitors Reduce Pancreatic Cancer Cell Proliferation and Colony Formation” (Cancers, 2019).
